Experimental data reported in US9624214B2, “Amino-substituted imidazo[1,2-a]pyridinecarboxamides and their use” (BAYER PHARMA AKTIENGESELLSCHAFT, priority 2012, dated 2017).
Where a name gives a salt, the structure may show the parent alone.

target: T1, recombinant guanylate cyclase reporter cell line (Rattus norvegicus, UniProt P19686+P20595); assay: B-2. Action on recombinant guanylate cyclase reporter cell line; type: cell-based; conditions: MEC = minimal effective concentration; in some cases mean values from individual determinations
T1 construct: expressed in transfected cells
T1 sequence (P20595 1-619): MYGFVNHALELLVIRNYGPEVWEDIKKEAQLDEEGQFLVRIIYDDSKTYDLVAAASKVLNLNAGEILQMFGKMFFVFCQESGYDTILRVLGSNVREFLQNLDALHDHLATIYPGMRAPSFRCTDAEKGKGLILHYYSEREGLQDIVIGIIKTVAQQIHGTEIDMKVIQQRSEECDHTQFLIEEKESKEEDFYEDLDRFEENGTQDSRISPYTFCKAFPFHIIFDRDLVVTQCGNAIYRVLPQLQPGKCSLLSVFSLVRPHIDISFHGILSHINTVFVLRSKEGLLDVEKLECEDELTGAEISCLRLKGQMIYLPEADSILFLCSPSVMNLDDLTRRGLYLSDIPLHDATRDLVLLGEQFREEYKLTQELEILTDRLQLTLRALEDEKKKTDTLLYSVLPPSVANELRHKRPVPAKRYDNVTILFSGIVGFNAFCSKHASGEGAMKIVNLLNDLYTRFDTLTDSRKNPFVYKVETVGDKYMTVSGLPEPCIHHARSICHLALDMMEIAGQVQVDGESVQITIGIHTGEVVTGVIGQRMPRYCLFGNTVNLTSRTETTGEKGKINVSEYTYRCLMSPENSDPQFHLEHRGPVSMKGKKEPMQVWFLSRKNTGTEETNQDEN
T1 sequence (P19686 1-690): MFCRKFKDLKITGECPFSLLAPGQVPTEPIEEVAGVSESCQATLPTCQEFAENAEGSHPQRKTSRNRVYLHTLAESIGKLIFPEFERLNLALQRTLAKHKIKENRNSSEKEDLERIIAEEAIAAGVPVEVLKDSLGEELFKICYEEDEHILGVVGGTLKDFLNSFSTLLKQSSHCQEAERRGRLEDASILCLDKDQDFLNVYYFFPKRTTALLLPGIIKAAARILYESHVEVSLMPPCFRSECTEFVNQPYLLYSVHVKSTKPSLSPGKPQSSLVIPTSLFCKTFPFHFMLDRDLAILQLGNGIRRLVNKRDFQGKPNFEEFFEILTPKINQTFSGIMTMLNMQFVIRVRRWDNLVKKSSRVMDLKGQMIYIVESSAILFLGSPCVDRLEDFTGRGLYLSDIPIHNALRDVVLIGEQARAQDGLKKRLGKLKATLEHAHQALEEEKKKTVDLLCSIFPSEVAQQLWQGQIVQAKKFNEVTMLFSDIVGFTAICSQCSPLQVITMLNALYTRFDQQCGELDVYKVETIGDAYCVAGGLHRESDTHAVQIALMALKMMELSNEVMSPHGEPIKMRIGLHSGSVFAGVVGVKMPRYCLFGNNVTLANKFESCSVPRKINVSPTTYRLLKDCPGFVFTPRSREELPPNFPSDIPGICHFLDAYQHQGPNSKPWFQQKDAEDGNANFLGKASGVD
Summary of the method: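 Cellular activity was measured in a reporter cell line expressing recombinant guanylate cyclase. Values are given as MEC, the minimal effective concentration, and some are means of individual determinations.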

Compound | MEC [µM]
Cc1cc(OCc2c(F)cccc2F)c2nc(C)c(C(=O)NCC(C)(N)C3CC3)n2c1 (single isomer, unassigned; enantiomer a) [Example 260, ent-N-(2-Amino-2-cyclopropylpropyl)-8-[(2,6-difluorobenzyl)oxy]-2,6-dimethylimidazo[1,2-a]-pyridine-3-carboxamide (Enantiomer A)] | 0.10
Cc1nc2c(OCc3c(F)cccc3F)cccn2c1C(=O)NCC(C)(N)CCOCc1ccccc1 (single isomer, unassigned; enantiomer a) [Example 266, ent-N-[2-Amino-4-(benzyloxy)-2-methylbutyl]-8-[(2,6-difluorobenzyl)oxy]-2-methylimidazo[1,2-a]pyridine-3-carboxamide (Enantiomer A)] | 0.03
Cc1cc(OCc2c(F)cccc2F)c2nc(C)c(C(=O)NCC(C)(N)CO)n2c1 (single isomer, unassigned; enantiomer a) [Example 268, ent-N-(2-Amino-3-hydroxy-2-methylpropyl)-8-[(2,6-difluorobenzyl)oxy]-2,6-dimethylimidazo-[1,2-a]pyridine-3-carboxamide (Enantiomer A)] | 0.55
Cc1cc(OCc2c(F)cccc2F)c2nc(C)c(C(=O)NCC(C)(N)CCO)n2c1 (single isomer, unassigned; enantiomer a) [Example 271, ent-N-(2-Amino-4-hydroxy-2-methylbutyl)-8-[(2,6-difluorobenzyl)oxy]-2,6-dimethylimidazo[1,2-a]pyridine-3-carboxamide (Enantiomer A)] | 0.30
Cc1nc2c(OCc3c(F)cccc3F)cccn2c1C(=O)NCC(C)(N)CCO (single isomer, unassigned; enantiomer a) [Example 272, ent-N-(2-Amino-4-hydroxy-2-methylbutyl)-8-[(2,6-difluorobenzyl)oxy]-2-methylimidazo[1,2-a]-pyridine-3-carboxamide (Enantiomer A)] | 5.5
CCC(C)(N)CNC(=O)c1c(C)nc2c(OCc3c(F)ccc(F)c3F)cc(C)cn12 (single isomer, unassigned; enantiomer a) [Example 274, ent-N-(2-Amino-2-methylbutyl)-2,6-dimethyl-8-[(2,3,6-trifluorobenzyl)oxy]imidazo[1,2-a]-pyridine-3-carboxamide (Enantiomer A)] | 0.10
CCC(C)(N)CNC(=O)c1c(C)nc2c(OCc3c(F)cccc3F)cc(OC)cn12 (single isomer, unassigned; enantiomer a) [Example 279, ent-N-(2-amino-2-methylbutyl)-8-[(2,6-difluorobenzyl)oxy]-6-methoxy-2-methylimidazo[1,2-a]pyridine-3-carboxamide (Enantiomer A)] | 0.3
Cc1cc(OCc2c(F)cccc2F)c2nc(C)c(C(=O)NCC(C)(N)CF)n2c1 (single isomer, unassigned; enantiomer a) [Example 283, ent-N-(2-amino-3-fluoro-2-methylpropyl)-8-[(2,6-difluorobenzyl)oxy]-2,6-dimethylimidazo[1,2-a]pyridine-3-carboxamide (Enantiomer A)] | 0.3
Cc1cc(OCc2c(F)ccc(F)c2F)c2nc(C)c(C(=O)NCC(C)(N)CF)n2c1 (single isomer, unassigned; enantiomer a) [Example 285, ent-N-(2-amino-3-fluoro-2-methylpropyl)-2,6-dimethyl-8-[(2,3,6-trifluorobenzyl)oxy]imidazo[1,2-a]pyridine-3-carboxamide (Enantiomer A)] | 0.3
CCC(C)(N)CNC(=O)c1c(C)nc2c(OCc3c(F)cccc3F)cc(C(F)F)cn12 (single isomer, unassigned; enantiomer a) [Example 287, ent-N-(2-amino-2-methylbutyl)-8-[(2,6-difluorobenzyl)oxy]-6-(difluoromethyl)-2-methylimidazo[1,2-a]pyridine-3-carboxamide Formate (Enantiomer A)] | 0.3
CCC(C)(N)CNC(=O)c1c(C)nc2c(OCc3c(F)cccc3F)cc(C(F)F)cn12 (single isomer, unassigned; enantiomer a) [Example 288, ent-N-(2-amino-2-methylbutyl)-8-[(2,6-difluorobenzyl)oxy]-6-(difluoromethyl)-2-methylimidazo[1,2-a]pyridine-3-carboxamide (Enantiomer A)] | 0.3
Cc1nc2c(OCc3c(F)cccc3F)cc(C(F)F)cn2c1C(=O)NCC(C)(N)CF (single isomer, unassigned; enantiomer a) [Example 291, ent-N-(2-amino-3-fluoro-2-methylpropyl)-8-[(2,6-difluorobenzyl)oxy]-6-(difluoromethyl)-2-methylimidazo[1,2-a]pyridine-3-carboxamide (Enantiomer A)] | 1.0
Cc1cc(OCc2c(F)cccc2F)c2nc(C)c(C(=O)NCC(C)(N)Cc3ccccn3)n2c1 (single isomer, unassigned; enantiomer a) [Example 298, ent-N-[2-amino-2-methyl-3-(pyridin-2-yl)propyl]-8-[(2,6-difluorobenzyl)oxy]-2,6-dimethyl-imidazo[1,2-a]pyridine-3-carboxamide (Enantiomer A)] | 0.10
CCC(C)(N)CNC(=O)c1c(C)nc2c(OCc3c(F)ccc(F)c3F)cc(C)cn12 (single isomer, unassigned; enantiomer a) [Example 300, ent-N-(2-amino-2-methylbutyl)-2,6-dimethyl-8-[(2,3,6-trifluorobenzyl)oxy]imidazo[1,2-a]pyridine-3-carboxamide (Enantiomer A) Hydrochloride] | 0.10
Cc1cc(OCc2c(F)cccc2F)c2nc(C)c(C(=O)NC3CCC3N)n2c1 (single isomer, unassigned; enantiomer a) [Example 328, ent-N-(2-aminocyclobutyl)-8-[(2,6-difluorobenzyl)oxy]-2,6-dimethylimidazo[1,2-a]pyridine-3-carboxamide (Enantiomer A)] | 3.00
Cc1cc(OCc2c(F)cccc2F)c2nc(C)c(C(=O)NC3CCC3(C)N)n2c1 (single isomer, unassigned; enantiomer a) [Example 332, ent-N-[2-amino-2-methylcyclobutyl]-8-[(2,6-difluorobenzyl)oxy]-2,6-dimethylimidazo[1,2-a]pyridine-3-carboxamide (Enantiomer A)] | 1.00
Cc1cc(OCc2c(F)cccc2F)c2nc(C)c(C(=O)NC3(C)CCC3(C)N)n2c1 (single isomer, unassigned; enantiomer a) [Example 336, ent-N-[(2-amino-1,2-dimethylcyclobutyl]-8-[(2,6-difluorobenzyl)oxy]-2,6-dimethylimidazo[1,2-a]pyridine-3-carboxamide (Enantiomer A)] | 0.30
CCC(C)(N)CNC(=O)c1c(C)nc2c(OCc3c(F)cccc3F)cc(C)cn12.Cl (single isomer, unassigned; enantiomer a) [Example 357, ent-N-(2-amino-2-methylbutyl)-8-[(2,6-difluorobenzyl)oxy]-2,6-dimethylimidazo[1,2-a]pyridine-3-carboxamide Hydrochloride (Enantiomer A)] | 0.03
Cc1cc(OCc2c(F)cccc2F)c2nc(C)c(C(=O)NCC(N)C#N)n2c1 (single isomer, unassigned; enantiomer a) [Example 401, ent-N-(2-amino-2-cyanoethyl)-8-[(2,6-difluorobenzyl)oxy]-2,6-dimethylimidazo[1,2-a]pyridine-3-carboxamide (Enantiomer A)] | 1.00
Cc1cc(OCc2c(F)cccc2F)c2nc(C)c(C(=O)NCC(C)(N)CCC(F)(F)F)n2c1 (single isomer, unassigned; enantiomer a) [Example 408, ent-N-(2-amino-5,5,5-trifluoro-2-methylpentyl)-8-[(2,6-difluorobenzyl)oxy]-2,6-dimethylimidazo[1,2-a]pyridine-3-carboxamide (Enantiomer A)] | 0.10
